Assay results reported in patent US9127027B2, “Epoxyeicosatrienoic acid analogs and methods of making and using the same” (The Medical College of Wisconsin, Inc., priority 2011, dated 2015).
pEC50, pIC50: −log10 of the molar value. Like-named read-outs stand apart in the source and are kept apart here.

Assays:
bovine coronary artery = experiment: Vasorelaxant activity in bovine coronary artery rings precontracted with U-46619; assay type: cell-based; details: for Vascular Relax. % (10 μM): 100% relaxation = basal pre-U-46619 tension; for pEC50: Bos taurus
Description: Vasorelaxant activity was measured in bovine coronary artery. Bovine hearts were obtained and the left anterior descending coronary artery was dissected and cleaned of connective tissue. Vessels of 1 mm diameter were cut into rings of 3 mm width as previously described (3, 27, 39). […] The vessels were suspended from a pair of stainless steel hooks in a 6-ml water-jacketed organ chamber. […] One hook was anchored to a steel rod and the other hook to a force transducer (model FT-03C; Grass Instruments, West Warwick, R.I.). Tension of the vessel was measured by an ETH-400 bridge amplifier, and the data were acquired with a MacLab 8e analog-to-digital converter and MacLab software version 3.5.6 (AD Instruments, Milford, Mass.) and stored on a Macintosh computer for subsequent data analysis.
Basal tension was set at the length-tension maximum of 3.5 g and equilibrated for 1.5 h. KCl (40 mM) was added to the chamber until reproducible maximal contractions were maintained. […] Cumulative additions of compounds were added to the chamber. Between concentration-response curves, the chambers were rinsed with fresh Krebs buffer, 40 mM KCl was administered to determine the maximum contraction, and the vessels were rinsed. Consecutive concentration-response curves were performed with 14,15-EET followed by a concentration-response curve to a compound. The experiment was always repeated with the order of the agonists reversed. […] The relaxation was plotted versus compound concentration and the EC50 determined utilizing statistical software.

[1] = tested on: Spontaneously Hypertensive Rats (SHR); experiment: Telemetry blood pressure and heart rate in spontaneously hypertensive rats; assay type: in vivo, rat; details: for blood pressure after two weeks of treatment: 2 mg/d i.p. osmotic pump, vehicle 141±3.0; for heart rate: 2 mg/d i.p., vehicle 331±17.0
Text: (§1) Telemetry Blood Pressure Measurement. To accurately detect changes in blood pressure and heart rate, telemetry transmitters (Data Sciences Inc., St. Paul, Minn.) were implanted in rats one week prior to the experimental period according to manufacturer's specifications while under pentobarbital anesthesia. In brief, an incision was made to expose the femoral artery that was occluded to allow insertion of the transmitter catheter. The catheter was secured in place with tissue glue and the transmitter body was sutured in place and the incision line was closed. Rats were allowed to recover from surgery and were returned to individual housing. A baseline arterial pressure was recorded for prior to the experimental period. Mean arterial pressure was continuously recorded throughout the experimental period.
Telemetry transmitters were implanted into male SHR as described. After the surgical recovery period, baseline mean arterial pressure was recorded. In this series of experiments, EET analogs were administered by osmotic pump (2 mg/d, i.p.) and blood pressure was continuously monitored.

[2] = tested on: angiotensin II induced hypertensive rats; experiment: Angiotensin II hypertension: telemetry blood pressure, heart rate, sodium and protein excretion; assay type: in vivo, rat; details: Ang II hypertension
Text: as §1
Telemetry transmitters were implanted into male Sprague-Dawley rats (225-275 g) as described. After recording basal blood pressure, osmotic pumps were implanted (s.c.) to deliver angiotensin at a dose of 60 ng/min. EET analogs were administered by an osmotic pump (2 mg/d, i.p.) and blood pressure was continuously monitored.
Animals were placed in a metabolic cage and urine was collected in a conical tube. Samples were stored at −80° C. until assayed. Urinary protein excretion was assessed as an index for renal injury. Protein was determined by the Bradford colorimetric method and creatinine was determined by the picric acid colorimetric method.

Human recombinant sEH = Human recombinant sEH (Homo sapiens (Human), UniProt P34913); experiment: Soluble epoxide hydrolase inhibition (PHOME fluorescent substrate); assay type: biochemical; details: for IC50: Table 1 head prints μM (Table 2 prints nM for same numbers), read-out: sEHi IC50; for pIC50: Table 2, read-out: SEHi activity IC50
Description: Compounds were tested for their ability to inhibit recombinant soluble epoxide hydrolase (sEH) protein. The assay utilizes (3-Phhenyl-oxiranyl)-acetic acid cyano-(6-methoxy-naphthalen-2-yl)-methyl ester (PHOME), a sensitive substrate for sEH that can be used to monitor the activity of both human and murine enzymes. […] Human recombinant sEH was incubated with substrate and compounds ranging in concentration from 0.1 to 1000 nM.

[3] = Table 2, read-out: Vascular relaxation EC50
[4] = bovine coronary artery, read-out: Vascular Relax. EC50

Human recombinant sEH, sequence (P34913 whole entry): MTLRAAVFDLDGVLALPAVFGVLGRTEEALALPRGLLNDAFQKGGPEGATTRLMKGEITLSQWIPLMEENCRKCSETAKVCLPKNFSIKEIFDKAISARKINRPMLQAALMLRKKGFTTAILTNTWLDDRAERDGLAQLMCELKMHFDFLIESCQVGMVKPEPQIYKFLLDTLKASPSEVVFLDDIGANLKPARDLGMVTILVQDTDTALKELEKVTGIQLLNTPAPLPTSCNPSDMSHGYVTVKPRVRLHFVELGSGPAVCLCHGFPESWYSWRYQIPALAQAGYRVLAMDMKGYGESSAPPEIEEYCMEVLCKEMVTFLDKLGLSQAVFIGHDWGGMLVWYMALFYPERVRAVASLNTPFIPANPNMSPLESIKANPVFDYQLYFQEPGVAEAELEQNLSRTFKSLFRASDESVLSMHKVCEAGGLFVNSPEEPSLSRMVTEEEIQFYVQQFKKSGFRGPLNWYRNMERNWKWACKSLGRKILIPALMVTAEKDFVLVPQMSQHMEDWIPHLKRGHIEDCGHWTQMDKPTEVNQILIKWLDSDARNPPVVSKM

| Compound | Vascular Relax. % (10 μM) (bovine coronary artery) | Vascular relaxation % relaxation (10 μM) (bovine coronary artery; Table 2) | pEC50 (bovine coronary artery; [3]) | pEC50 (bovine coronary artery; [4]) | blood pressure after two weeks of treatment [1] | heart rate [1] | blood pressure at end of two-week treatment ([2]; 2 mg/d i.p., vehicle 150±3.2) | heart rate ([2]; two weeks, vehicle 396±25.0) | IC50 (Human recombinant sEH) | pIC50 (Human recombinant sEH) |
| --- | --- | --- | --- | --- | --- | --- | --- | --- | --- | --- |
| CCCCCNC(=O)NCCCC/C=C\CCCCCCC(=O)N[C@@H](CC(=O)O)C(=O)O (stereo in doubt) [Compound 7, (S)-2-(13-(3-n-Pentylureido)tridec-8(Z)-enamido)succinic acid] | 91% | 91% | 5.80 | 5.80 | 131±2.0 mmHg | 316±23.0 BPM | 135±5.0 mmHg | 410±25.0 BPM |  |  |
| CCCCCNC(=O)NCCCC/C=C\CCCCCCc1nnn[nH]1 [Compound 20] | 119% | 119% | 6.74 | 6.74 | 137±1.0 mmHg |  |  |  | 0.011 µM | 7.96 |
| CCCCCCC(=O)N(CCCC/C=C\CCCCCCC1=NOS(=O)N1)C(C)C (centres unmarked) [Compound 26] | 109% | 109% | 6.49 | 6.49 | 150±5.0 mmHg | 344±23.0 BPM |  |  | > 0.5 µM | < 6.30 |
